How the values were obtained:
[1] = test system: airway pressure of guinea pig sensitized with ovalbumin; assay: Antigen (ovalbumin) induced airway contraction, immediate type asthmatic model, Konzett and Rossler method; type: in vivo; conditions: for increase ratio of the airway pressure / increase in the airway pressure / inhibition compared to the control group: 10 min; for inhibition of the immediate type asthmatic reaction (airway contraction): inhalation administration, guinea pigs
Method: In order to examine the bronchodilation effect of the glucuronides of salbutamol and isoprenaline of β2-agonists, an asthmatic model of a guinea pig sensitized with ovalumin was used. The test was conducted in accordance with the method of Konzett and Rossler (Arch. Exp. Pathol. Pharmakol., 195, 71-75, 1940).
On day 1 and day 8 after the initiation of sensitization, 500 μg/0.5 mL of ovalbumin was intramuscularly administered to both legs of a guinea pig and 1.5×10^5 cells/mL/animal of pertussis vaccine was intraperitoneally administered to effect active sensitization. On day 15 after the initiation of sensitization, 10 and 100 μg/site of ovalbumin were intradermally administered to the back of the guinea pig, respectively, to check the state of sensitization. Only the animals which were found positive by the sensitization check 6 hours after the intradermal sensitization were used in the experiment.
As the test substance, a drug solution was atomized by reducing the atomizing amount of an ultrasonic nebulizer to generate an aerosol, and the aerosol was then led into an exposure chamber (M.I.P.S. Co.), sucked at a rate of 3 L/min with the use of an air pump (SPP-3GA, Techno Takatsuki Co.) and administered to the guinea pig for 10 minutes by inhalation 40 minutes before the challenge of ovalbumin.
On day 10 to 23 after the initiation of sensitization, the animals were anesthetized with sodium pentobarbital (50 mg/kg, i.p.), and cannulation was conducted into the trachea. Through the tracheal cannula the animals were connected to an artificial respirator and the change in the ventilation pressure under artificial respiration (a ventilation amount of 10 mL/kg, a ventilation frequency of 50 times/min) was recorded as the airway pressure through a differential pressure transducer (Validyne, Gould Electronics) connected to the tracheal cannula on a recorder (WT-645G, Nihon Koden Co., Ltd.). The airway pressure was measured up to 10 minutes after the administration of ovalbumin. Then, cannulation was conducted into the right and left common carotid veins. From the left cannulation, gallamine (10 mg/mL) in a volume of 1 mL/kg was intravenously administered ([…]) to confirm the disappearance of spontaneous respiration. Thereafter, ovalbumin was intravenously administered to induce an antigen-antibody reaction. The measuring points of the airway pressure were set at a time before induction, and at 1, 3, 5, 7, and 10 minutes after induction. The ratio of the increase in the airway pressure is represented by the percentage of the values obtained by subtracting the observed value before induction from the observed value at each measuring time after induction based on the maximum occlusion at each measuring time.
As the test substances, salbutamol glucuronide and isoprenaline glucuronide were used. The salbutamol glucuronide is a white powder and the isoprenaline glucuronide is a brown crystal and both were stored at −80° C. under protection from light. As the control substances for comparison, each of sulbutamol chloride (hereinafter referred to as sulbutamol) and isoprenaline chloride (hereinafter referred to as isoprenaline) was used. The salbutamol and the isoprenaline are white powders and were stored at room temperature under protection from light. The test substances and the control substances for comparison were weighed in a necessary amount and dissolved in physiological saline (products of Otsuka Pharmaceutical Factory, Inc., Lot Nos. 1D78 and 1E84) to effect the preparation before using. The concentrations of the test substances and the control substances for comparison in solutions were rendered equivalent amounts by molar concentration. All solutions were nearly stable at room temperature for 24 hours.
The obtained experimental results were shown by mean values and standard deviations with airway pressure. As to the test of significance, the Student's t test without any correspondence was conducted when two groups were compared. […]

[2] = test system: blood pressure and heart rate; assay: Blood pressure and heart rate after generalized inhalation exposure; type: in vivo, Crj:CD(SD) rats; conditions: inhalation 10 min; for increase of the heart rate: after five minutes
Method: The test was conducted by using Crj:CD(SD) rats with each group of 6 rats.
Surgery was carried out under the anesthesia of a mixed gas of oxygen, nitrous oxide and isoflurane, and one end of a polyethylene tube (PE50, Becton Dickinson) filled with physiological saline containing heparin (100 U/mL) was inserted into a common carotid artery and indwelled, and the other end was passed through the neighborhood of the neck of the back of the animal and connected to a cannula (Instec Co.) installed at the upper portion of an exposure chamber. This cannula was connected to a pressure transducer (P23XL. Gould Electronics) through a polyethylene tube. Further, the periphery of the polyethylene tube from the back of the rat up to this cannula was passed through a metallic spring to prevent a damage to be caused by the rat.
The administration of the drugs was conducted by preparing an exposure chamber and subjecting the rat with a cannula for measuring blood pressure in the indwelled state in the common cartoid artery to the generaliged inhalation exposure. This method is typically used in the generalized inhalation exposure.
The signals from the pressure transducer (P23XL, Gould Electronics) were led to a pressure processor signal conditioner (Gould Electronics) and recorded on a thermal array recorder (RS3400, Gould Electronics). The blood pressure and the heart rate were continuously recorded from before the initiation of administration to 20 minutes after the completion of administration. The administration of the drugs was initiated when not less than one hour after waking passed and the measurement parameters were stabilized.
Test substances were prepared in the same manner as in Example 1.
The representative values of each group were shown by mean values [[…] (S.E.)]. With the mean values of each group, the test of significance was conducted by the Tukey's multiple test. Further, the significant standard was regarded as 5%.

[3] = test system: airway pressure of guinea pig sensitized with ovalbumin; assay: Antigen (ovalbumin) induced airway contraction, immediate type asthmatic model, Konzett and Rossler method; type: in vivo; conditions: for inhibition compared to the control group: 10 min
[4] = test system: tracheal smooth muscle sample of a pig; assay: In vitro inhibition of smooth muscle contraction induced with high concentration of KCl or carbachol; type: cell-based
Method: (§1) The smooth muscle contraction induced in the tracheal smooth muscle sample of a pig with a high concentration of KCl or carbachol is inhibited with an IC50 of about 5 μM. […] In mice, rats, guinea pigs, dogs, and monkeys, as the result of blood analysis after the administration, not less than 99% of the compound was the glucuronic conjugate in any of the animal species.

[5] = Blood analysis after oral administration (glucuronidation); type: in vivo, and monkeys; conditions: mice, rats, guinea pigs, dogs, monkeys (any species)
Method: as §1

[6] = inhalation 0.072%, after three minutes
[7] = 5 mg/L, during 30 minutes of measurement
[8] = inhalation 0.1%, three minutes after antigen induction
[9] = 1 mg/L, during 30 minutes of measurement
[10] = inhalation 0.157%, after three minutes

SMILES: CC(C)(C)NCC(O)c1ccc(O)c(CO[C@@H]2OC(C(=O)O)[C@@H](O)C(O)C2O)c1 (stereo partly drawn) [salbutamol glucuronide, 3-O-(β-D-Glucuronyl)-salbutamol]
- increase ratio of the airway pressure [1, 6]: about 20%
- inhibition of the immediate type asthmatic reaction (airway contraction) [1]: significantly inhibit
- effect on blood pressure and heart rate ([2]; 7.2 mg/L): no effect was observed at all
- inhibition compared to the control group [3, 6]: about 56%

SMILES: CC(C)(C)NCC(O)c1ccc(O)c(CO)c1 (stereo not shown) [salbutamol]
- increase in the airway pressure ([1]; inhalation 0.05%, 40 min before challenge, three minutes after antigen induction): about 3%
- inhibition compared to the control group ([1]; inhalation 0.05%, three minutes after antigen induction): about 92%
- increase of the heart rate ([2]; 5 mg/L): about 36%
- maximum blood pressure decrease ratio [2, 7]: 27%
- maximum heart rate increase ratio [2, 7]: 39%
- decrease of the blood pressure vs before inhalation (pre) ([2]; 5 mg/L, five minutes after completion of inhalation): about 26%
- blood pressure ([2]; salbutamol 5 mg/L, five minutes after completion of inhalation): 75 mmHg

SMILES: CCC1Cc2c(O)cc(O)cc2Sc2ccccc21 (stereo not shown) [11-Ethyl-7,9-dihydroxy-10,11-dihydrobenzo[b,f]thiepin]
- IC50 [4]: ~5 µM
- portion of the compound present as glucuronic conjugate in blood [5]: not less than 99%
- airway contraction inhibition ([3]; oral administration, 10 mg/kg): showed the airway contraction inhibition

SMILES: CC(C)NCC(O)c1ccc(O)c(O)c1 (stereo not shown) [isoprenaline]
- increase in the airway pressure [1, 8]: about 12%
- increase of the heart rate ([2]; 1 mg/L): about 49%
- maximum decrease of the blood pressure [2, 9]: 28%
- maximum increase of the heart rate [2, 9]: 50%
- decrease of the blood pressure vs before the treatment ([2]; 1 mg/L, five minutes after completion of inhalation): about 27%
- blood pressure ([2]; isoprenaline 1 mg/L, five minutes after completion of inhalation): 72 mmHg
- inhibition compared to the control group [3, 8]: about 73%

SMILES: CC(C)NCC(O)c1ccc(O[C@@H]2OC(C(=O)O)[C@@H](O)C(O)C2O)c(O)c1 (stereo partly drawn) [isoprenaline glucuronide, 4-O-(β-D-Glucuronyl)-isoprenaline]
- increase ratio of the airway pressure [1, 10]: about 10%
- inhibition compared to the control group [1, 10]: about 77%
- inhibition of the immediate type asthmatic reaction (airway contraction) [1]: significantly inhibit
- effect on blood pressure and heart rate ([2]; 1.57 mg/L): no effect was recognized at all

Source: US20050203061A1, “Prodrug, medicinal utilization thereof and process for producing the same” (priority 2002, published 2005)
